Experiment [1] has as its system Rattus norvegicus. The experiment is described as follows: Inhibition of lipopolysaccharide-induced tumor necrosis factor alpha production in rats at 10 mg/kg peroral dose (n=7). It is filed as functional. Particulars: route oral.
The target of another experiment is Phosphodiesterase 4 (Homo sapiens, UniProt P27815+Q08499+Q07343+Q08493). The experiment is described as follows: Inhibition of phosphodiesterase 4 (PDE4) from U937 cells. It is filed as cell-based. Particulars: u-937.
In experiment [2] the test system is Rattus norvegicus. The experiment is described as follows: Inhibition of lipopolysaccharide-induced tumor necrosis factor alpha production in rats by peroral administration. It is filed as functional. To be noted: po, read-out: ID50 (the source's name).
The species named for experiment [3] is Rattus norvegicus. The experiment in a line: Inhibition of gastric emptying in rats by peroral dose. It counts as functional. To be noted: Stomach, po, read-out: ID50 (the source's name).
For experiment [4], the system named is Cavia porcellus. The experiment in a line: In vivo inhibition of slow reacting substance of anaphylaxis (SRS-A) mediated bronchoconstriction in guinea pig. Particulars: Lung. It counts as functional, organism-based.
The subject of experiment [5] is Rattus norvegicus. The experiment is described as follows: Inhibition of lipopolysaccharide-induced tumor necrosis factor alpha production in rats by peroral administration (n=7). It counts as functional. Particulars: po, read-out: ID50 (the source's name).
For another experiment, the species on record is Homo sapiens. The experiment in a line: Inhibition of TNF-alpha production in human whole blood. It is filed as functional, organism-based.
The subject of experiment [6] is Mustela putorius furo. The experiment in a line: Emetic effect in fasted ferrets at 30 mg/kg peroral dose (n=2). It counts as functional. To be noted: route oral.
In experiment [7] the test system is Cavia porcellus. The experiment is described as follows: In vivo inhibition of SRS-A mediated bronchoconstriction in guinea pig at 10 mg/kg peroral dose. It counts as functional. To be noted: Lung, route oral.
The test system of experiment [8] is Mustela putorius furo. The experiment is described as follows: Emetic effect in fasted ferrets at 3 mg/kg peroral dose (n=2). It counts as functional. To be noted: route oral.
Experiment [9] has as its system Mustela putorius furo. The experiment in a line: Emetic effect in fasted ferrets at 10 mg/kg peroral dose (n=3). It is filed as functional. To be noted: route oral.
The test system of experiment [10] is Rattus norvegicus. The experiment in a line: Inhibition of lipopolysaccharide-induced tumor necrosis factor alpha production in rats at 3 mg/kg peroral dose (n=7). It counts as functional. Particulars: route oral.
In experiment [11] the test system is Rattus norvegicus. The experiment is described as follows: Inhibition of gastric emptying in rats […] peroral dose. Particulars: Stomach, route oral, read-out: ID50 (the source's name). It counts as functional.
In experiment [12] the test system is Mustela putorius furo. The experiment in a line: Emetic effect in fasted ferrets at 10 mg/kg peroral dose (n=2). It is filed as functional. To be noted: route oral.

pIC50: −log10 of the molar value. Bounds are passed on as bounds.

We go through 15 compounds from ChEMBL document CHEMBL1146706, “New orally active PDE4 inhibitors with therapeutic potential” (Bioorg Med Chem Lett, 2004).

`Cc1nn(C)c2ncc(C(N)=O)c(Nc3cccc(O)c3)c12`: the inhibition in vivo (commonly the percentage by which the read-out fell short of the control) at 10 mg/kg in the experiment on Rattus norvegicus [1] amounted to 40%. The IC50 (in general, the concentration needed to halve the response being measured) on Phosphodiesterase 4 was found to be 97 nM.

Take `COc1ccc([C@]2(C#N)CC[C@@H](C(=O)O)CC2)cc1OC1CCCC1` [CILOMILAST]: the ED50 in the experiment on Rattus norvegicus [2] is 1.7 mg/kg; in the experiment listed under Rattus norvegicus [3], 5.7 mg/kg. Also, the pIC50 (in general, the IC50 on a negative log10 scale, so that one unit is a factor of ten) with Cavia porcellus [4] was 5.35.

For `COc1ccc(Nc2c(C(N)=O)cnc3c2c(C)nn3C)cc1`, the IC50 on Phosphodiesterase 4 was greater than 100 nM.

`Cc1nn(C)c2ncc(C(N)=O)c(Nc3cccc(OC4CCCC4)c3)c12` had an inhibition in vivo at 10 mg/kg in the experiment with Rattus norvegicus [1] of 39%. In addition, the IC50 at Phosphodiesterase 4 is greater than 100 nM.

Take `CC(=O)N1CC[C@H](Oc2cccc(Nc3c(C(N)=O)cnc4c3c(C)nn4C)c2)C1`: at Phosphodiesterase 4, the IC50 is greater than 300 nM.

Regarding `COC(=O)N1CC[C@H](Oc2cccc(Nc3c(C(N)=O)cnc4c3c(C)nn4C)c2)C1`, the ED50 was 1 mg/kg with Rattus norvegicus [5] and 15 mg/kg in the experiment filed under Rattus norvegicus [3]. The compound also gave a pIC50 in the experiment listed under Homo sapiens of 5.32. Besides, the No. of ferrets came to 2 in the experiment on Mustela putorius furo [6], 0 in the experiment with Mustela putorius furo [8] and 0 in the experiment with Mustela putorius furo [9]. In the experiment on Cavia porcellus [7], this compound registered an inhibition in vivo at 10 mg/kg of 45%. Also, the IC50 at Phosphodiesterase 4 amounted to 10 nM.

`COc1ccccc1Nc1c(C(N)=O)cnc2c1c(C)nn2C`: in the experiment with Rattus norvegicus [1], 10 mg/kg produced 68% inhibition in vivo. On Phosphodiesterase 4, this compound displayed an IC50 of 76 nM.

Turning to `Cc1nn(C)c2ncc(C(N)=O)c(Nc3cccc(C#N)c3)c12`, the inhibition in vivo at 3 mg/kg in the experiment with Rattus norvegicus [10] was 2%. Besides, at Phosphodiesterase 4, the IC50 was determined as 85 nM.

With `Cc1nn(C)c2ncc(C(N)=O)c(Nc3cccc(O[C@H]4CCN(S(C)(=O)=O)C4)c3)c12`, the IC50 on Phosphodiesterase 4 is 250 nM.

On Phosphodiesterase 4, `Cc1nn(C)c2ncc(C(N)=O)c(Nc3cccc(OC4CCCCC4)c3)c12` had a half-maximal inhibitory concentration (IC50) greater than 100 nM.

On to `Cc1nn(C)c2ncc(C(N)=O)c(Nc3cccc(O[C@H]4CCN(C(=O)OC(C)(C)C)C4)c3)c12`, for which the IC50 against Phosphodiesterase 4 is greater than 300 nM.

In the case of `Cc1nn(C)c2ncc(C(N)=O)c(Nc3cccc(OC4CCC4)c3)c12`, the IC50 at Phosphodiesterase 4 was greater than 100 nM.

Regarding `COc1cccc(Nc2c(C(N)=O)cnc3c2c(C)nn3C)c1`, the ED50 was 23 mg/kg in the experiment on Rattus norvegicus [11] and 2.4 mg/kg in the experiment on Rattus norvegicus [5]. Besides, the No. of ferrets came out at 0 with Mustela putorius furo [12], 1 in the experiment on Mustela putorius furo [6] and 0 in the experiment on Mustela putorius furo [8]. In addition, the pIC50 in the experiment listed under Homo sapiens is 5.52; with Cavia porcellus [4], 5.17. Moreover, the IC50 against Phosphodiesterase 4 worked out at 5 nM.

Take `Cc1nn(C)c2ncc(C(N)=O)c(Nc3cccc(O[C@H]4CCNC4)c3)c12`: on Phosphodiesterase 4, the IC50 is greater than 300 nM.

On to `Cc1nn(C)c2ncc(C(N)=O)c(Nc3ccccc3)c12`, for which 10 mg/kg produced 48% inhibition in vivo in the experiment with Rattus norvegicus [1]. This compound showed an IC50 at Phosphodiesterase 4 of 36 nM.
